Measured values published in patent publication US4771057A, “Reduced pyridyl derivatives with cardiovascular regulating properties” (University of Alberta, priority 1986, dated 1988).
Where two headings read alike, the source gives them in different places.

Columns and labels:
[1] = system: guinea pig ileal longitudinal smooth muscle; test: Calcium channel agonist testing: contractile response of guinea pig ileal longitudinal smooth muscle, compound given in place of CD; format: cell-based; details: for EC50: Cavia porcellus, given in the place of CD, no calcium antagonist added, read-out: effective dose producing 50% of the maximum contractile response
Protocol: Calcium channel antagonist activity was determined as the concentration required to produce 50% inhibition of the muscarinic receptor-mediated Ca^2+ -dependent contraction of guinea pig ileal longitudinal smooth muscle assay (C. Triggle, V. Swamy and D. Triggle, Can. J. Physiol. Pharmacol., 1979, 57, 804). Male albino guinea pigs (body weight 300-450 g) were sacrificed by decapitation. The intestine was removed above the ileo-caecal junction. Longitudinal smooth muscle segments of 2 cm length were mounted under a resting tension of 300-400 mg. The segments were maintained at 37° C. in a 10 mL jacketed organ bath containing oxygenated (100% O2) physiological saline solution of the following composition (mM): NaCl: 137; CaCl2 : 2.6; KCl: 5.9; MgCl2 : 1.2; glucose: 11.9; buffered by Hepes-NaOH to pH 7.4. The muscles were equilibrated for 1 h with a solution change every 15 min. Two successive control contractions were elicited at 15 min intervals with 5×10^-7 M cis-2-methyl- 4-dimethylaminomethyl-1,3-dioxolane methiodide (CD). The isometric contractions were recorded with a force displacement transducer (FT 03C) on a GRASS physiograph. The means of the two contractile responses was taken as the 100% value for the tonic (slow) component of the response. The muscle was washed with Hepes saline solution and was allowed to re-equilibrate. The calcium antagonist (test compound) was added ten min before the dose-response for CD was determined. The drug-induced inhibition of contraction was expressed as percent of control. The ID50 values were graphically determined from the concentration-response curves. The test results are shown in Table 7, the compounds testing being compared to Nifedipine (TM).
(§1) A modified protocol, used for testing calcium channel antagonists (vide supra), was used to determine the concentration at which D-30 produced 50% of the maximum contractile response. D-30 was administered in the place of CD and the dose-response curve was determined. A calcium antagonist was not added during the experiment. […] Similarly, the effective dose of the isomeric D-31 producing 50% of the maximum contractile response was 6.6×10^-5 M. Both D-30 and D-31 increased the guinea pig right atria heart rate by 30%.

guinea pig right atria = test: Guinea pig right atria heart rate; format: cell-based
Protocol: as §1

calcium channel = details: literature comparison for D-30; cited from earlier work
[2] = system: guinea pig ileal longitudinal smooth muscle; test: Calcium channel antagonist testing: inhibition of muscarinic receptor-mediated Ca2+-dependent contraction (response to CD) of guinea pig ileal longitudinal smooth muscle; format: cell-based; details: for IC50: 50% inhibition of tonic contraction to CD 5×10^-7 M, compound added 10 min before CD, 37° C., pH 7.4, read-out: Calcium channel antagonist act., inhib. act. on contractile response to CD, ID50
Protocol: Male albino guinea pigs (body weight 300-450 g) were sacrificed by decapitation. The intestine was removed above the ileo-caecal junction. Longitudinal smooth muscle segments of 2 cm length were mounted under a resting tension of 300-400 mg. […] The muscles were equilibrated for 1 h with a solution change every 15 min. Two successive control contractions were elicited at 15 min intervals with 5×10^-7 M cis-2-methyl- 4-dimethylaminomethyl-1,3-dioxolane methiodide (CD). The isometric contractions were recorded with a force displacement transducer (FT 03C) on a GRASS physiograph. The means of the two contractile responses was taken as the 100% value for the tonic (slow) component of the response. The muscle was washed with Hepes saline solution and was allowed to re-equilibrate. The calcium antagonist (test compound) was added ten min before the dose-response for CD was determined. The drug-induced inhibition of contraction was expressed as percent of control. The ID50 values were graphically determined from the concentration-response curves.

## COC(=O)C1=C(C)NC(C)=C([N+](=O)[O-])C1c1cccnc1 [Compound D-30, methyl 2,6-dimethyl-3-nitro-4-(3'-pyridyl)-1,4-dihydropyridine-5-carboxylate]
[1]
  EC50: 94 µM
[1]; conclusion from contractile response
  calcium channel agonist activity: calcium channel agonist which promotes calcium entry into cells
[1]; tested using the calcium channel antagonist testing procedure
  muscle contraction: caused muscle contraction
Guinea pig right atria
  increase of guinea pig right atria heart rate: 30%

## CCOC(=O)C1=C(C)NC2=C(C(=O)OC2)C1c1ccccc1OC(F)F (stereo not drawn) [CGP 28392]
Calcium channel
  calcium channel agonist activity of reference compounds: calcium channel agonist which promotes calcium entry into cells

## COC(=O)C1=C(C)NC(C)=C([N+](=O)[O-])C1c1ccccc1C(F)(F)F (stereo not drawn) [Bay K 8644]
Calcium channel
  calcium channel agonist activity of reference compounds: calcium channel agonist which promotes calcium entry into cells

## COC(=O)C1=C(C)NC(C)=C(C(=O)OC)C1C1=CCN(C)CC1 [Compound D-66, Dimethyl 2,6-dimethyl-4-[4'-(N--methyl-1',2',3',6'-tetrahydropyridyl)]-1,4-dihydropyridine-3,5-dicarboxylate]
[2]; Cavia porcellus
  IC50: 181 µM

## Diisopropyl 2,6-dimethyl-4-{3'-[N-- phenoxycarbonyl-1',2'-(1',6'-)dihydropyridyl]}-1,4-dihydropyridine-3,5-dicarboxylate [Compound D-38]
[2]
  IC50: 1.67 µM

## COC(=O)C1=C(C)NC(C)=C([N+](=O)[O-])C1c1ccncc1 [Compound D-31, methyl 2,6-dimethyl-3-nitro-4-(4'-pyridyl)-1,4-dihydropyridine-5-carboxylate]
[1]
  EC50: 66 µM
Guinea pig right atria
  increase of guinea pig right atria heart rate: 30%

## CC1=C(C(=O)OCC(C)C)C(C2=CCN(C(=O)Oc3ccccc3)C=C2)C(C(=O)OCC(C)C)=C(C)N1 [Compound D-56, Diisobutyl 2,6-dimethyl-4-[4'-(N--phenoxycarbonyl)]-1,4-di-hydropyridine-3,5-dicarboxylate]
[2]; Cavia porcellus
  IC50: 0.51 µM
[2]; conclusion from Table 7
  calcium channel antagonist activity, comparison to Nifedipine (TM): active calcium channel antagonists, being comparable to Nifedipine (TM)
